According to patent US20230365625A1, “METHODS FOR TREATING AND/OR PREVENTING UNDESIRABLE SEQULAE OF NASAL TURBINOPLASTY OR FUNCTIONAL ENDOSCOPIC SINUS SURGERY” (3-D Matrix, Ltd., priority 2022, published 2023):
Values joined by “and” are separate entries in the source; they are usually repeats but may differ in a detail not shown here. Identical values can stand only once. “Also recorded” adds a separate entry of the source.

Columns and labels:
[1] = test system: nasal mucosal injuries on the middle turbinate and opposing nasal septum; experiment: Intra-operative time to hemostasis, sheep endoscopic nasal surgery model; format: in vivo, Merino sheep
Method: Surgical Methods—On the day prior to surgery, the animals were weighed, and each nostril was randomly assigned by computer randomization to receive PuraSinus, FLOSEAL or no treatment to each nostril after the surgical turbinoplasty. Each animal had food withheld for 24 hours and water withheld for 8 to 12 hours prior to the day of surgery as per the standard anesthetic procedure. The animals were sedated with a weight adjusted dose of intravenous diazepam. Following sedation, a percutaneous jugular catheter was inserted and secured, with induction achieved by further weight adjusted doses of intravenous diazepam and ketamine. The animals were placed in sternal recumbency for insertion of a size-appropriate endotracheal tube. Anesthesia was maintained through inhaled 1-2% isofluorane with parenteral propofol and ketamine given when necessary. Each animal was then given a prophylactic dose of long-acting antibiotic, weight adjusted oxytetracycline to cover for postoperative infections. The nasal cavity was prepared by packing with surgical pledgets soaked in 1% lignocaine and phenylephrine mixture. The middle turbinate was infiltrated with the same lignocaine/phenylephrine mixture via a small gauge needle in numerous sites over the middle turbinate. The use of vasoconstrictors and decongestants such as lignocaine and phenylephrine both topically and injected locally is standard pre-operatively in patients undergoing turbinoplasty (Ahmed S. et al., J. Coll. Physicians Surg. Pak. 26(6): 531-2 (2016)) The animals' vital signs were monitored throughout the procedure.
Prior to making incisions, all sheep were first examined under endoscope to screen for any nasal septum deviations. Only animals that had straight septum and uniform space between septum and middle turbinate were used. […]
Intraoperative observations—The degree of bleeding/hemostasis was assessed by an independent observer who was blinded to the appearance of FLOSEAL and PuraSinus (SEQ ID NO:1), and to the background of these two hemostatic agents. […]

[2] = test system: mucosa at the operated middle turbinate sites; experiment: Histopathology of the surgical site at 6 weeks (H&E, 6 markers of wound healing), sheep model; format: in vivo, Merino sheep
Method: Termination—At day 42, the animals were euthanized with standard terminal procedures through an intravenous injection of sodium pentobarbital. Post-termination, the mucosa at the operated middle turbinate sites were excised and prepared via hematoxylin and eosin staining by a veterinary histopathologist using 6 different markers of wound healing as shown in Table 3. [table] Histopathology observations—Vertical incisions through the roof and floor of the nasal cavity were performed during necropsy after endoscopic evaluation. This allowed both lateral nasal walls to be opened outwards from the septum whereby the operated mucosa adjacent to the vomer could be easily identified and excised atraumatically. Specimens were preserved in 10% neutral buffered formalin and transported for hematoxylin and eosin staining and slide preparation. Example specimens are shown in FIGS. 4A and 4B for PuraSinus treated tissue and FIGS. 5A and 5B for FLOSEAL treated tissue. Individual sample observations are presented in Appendix 3.

[3] = 2.5% in water; cited from earlier work
[4] = test system: punch hole injuries to the liver; settings: pig, in vivo; cited from earlier work
[5] = individual site, 6 weeks, scale 0-3, listed as P
[6] = individual site, 6 weeks, scale −1-1, listed as P

CC(=O)N[C@@H](CCCNC(=N)N)C(=O)N[C@@H](C)C(=O)N[C@@H](CC(=O)O)C(=O)N[C@@H](C)C(=O)N[C@@H](CCCNC(=N)N)C(=O)N[C@@H](C)C(=O)N[C@@H](CC(=O)O)C(=O)N[C@@H](C)C(=O)N[C@@H](CCCNC(=N)N)C(=O)N[C@@H](C)C(=O)N[C@@H](CC(=O)O)C(=O)N[C@@H](C)C(=O)N[C@@H](CCCNC(=N)N)C(=O)N[C@@H](C)C(=O)N[C@@H](CC(=O)O)C(=O)N[C@@H](C)C(N)=O [PuraSinus, Ac-RADARADARADARADA-NH2]
Time to hemostasis ([1]; individual surgical site (sheep number, nostril), listed as P): 120 sec and 102 sec and 125 sec and 130 sec (3×) and 140 sec and 150 sec (2×) and 70 sec and 220 sec and 85 sec and 180 sec and 190 sec and 210 sec and 95 sec and 290 sec and 58 sec and 131 sec and 87 sec | Intra-operative hemostasis time ([1]; sheep, mean±SD, 20 sites per group): 139.7 ± 56.2 s | Hemostasis compared to untreated control ([1]; sheep, result in words): statistically significant reduction in time to hemostasis; also recorded: improved hemostasis | Angiogenesis (A): number of sites Grade 0 ([2]; 6 weeks): 9 | Angiogenesis (A): number of sites Grade 1 ([2]; 6 weeks): 6 | Angiogenesis (A): number of sites Grade 2 ([2]; 6 weeks): 4 | Angiogenesis (A): number of sites Grade 3 ([2]; 6 weeks): 1 | Epithelial erosion (EE): number of sites Grade 0 ([2]; 6 weeks): 5 | Epithelial erosion (EE): number of sites Grade 1 ([2]; 6 weeks): 8 | Epithelial erosion (EE): number of sites Grade 2 ([2]; 6 weeks): 6 | Epithelial erosion (EE): number of sites Grade 3 ([2]; 6 weeks): 1 | Goblet cells (GC): number of sites Grade 0 ([2]; 6 weeks): 6 | Goblet cells (GC): number of sites Grade +1 ([2]; 6 weeks): 6 | Goblet cells (GC): number of sites Grade −1 ([2]; 6 weeks): 8 | Inflammatory infiltrate (II): number of sites Grade 0 ([2]; 6 weeks): 3 | Inflammatory infiltrate (II): number of sites Grade 1 ([2]; 6 weeks): 13 | Inflammatory infiltrate (II): number of sites Grade 2 ([2]; 6 weeks): 4 | Inflammatory infiltrate (II): number of sites Grade 3 ([2]; 6 weeks): 0 | Sero-mucous glands (SMC): number of sites Grade 0 ([2]; 6 weeks): 14 | Sero-mucous glands (SMC): number of sites Grade +1 ([2]; 6 weeks): 0 | Sero-mucous glands (SMC): number of sites Grade −1 ([2]; 6 weeks): 6 | Submucosal fibrosis (SF): number of sites Grade 0 ([2]; 6 weeks): 4 | Submucosal fibrosis (SF): number of sites Grade 1 ([2]; 6 weeks): 12 | Submucosal fibrosis (SF): number of sites Grade 2 ([2]; 6 weeks): 3 | Submucosal fibrosis (SF): number of sites Grade 3 ([2]; 6 weeks): 1 | Mucosal regeneration / wound healing on histopathology ([2]; 6 weeks, result in words): favorable outcomes for wound healing enhancement across all 6 metrics; also recorded: enhancement to mucosal regeneration; also recorded: more commonly associated with enhanced mucosal regeneration; also recorded: improved outcome | Angiogenesis (A): Mean score ([2]; 6 weeks, scale 0-3): 0.85 | Epithelial erosion (EE): Mean score ([2]; 6 weeks, scale 0-3): 1.15 | Inflammatory infiltrate (II): Mean score ([2]; 6 weeks, scale 0-3): 1.05 | Submucosal fibrosis (SF): Mean score ([2]; 6 weeks, scale 0-3): 1.05 | Goblet cells (GC): Mean score ([2]; 6 weeks, scale −1-1): −0.1 | Sero-mucous glands (SMC): Mean score ([2]; 6 weeks, scale −1-1): −0.3 | A (angiogenesis) grade [2, 5]: 1 (6×) and 3 and 0 (9×) and 2 (4×) | EE (epithelial erosion) grade [2, 5]: 1 (8×) and 2 (6×) and 0 (5×) and 3 | II (inflammatory infiltrate) grade [2, 5]: 2 (4×) and 1 (13×) and 0 (3×) | SF (submucosal fibrosis) grade [2, 5]: 1 (12×) and 2 (3×) and 0 (4×) and 3 | GC (goblet cells) grade [2, 6]: −1 (8×) and 1 (6×) and 0 (6×) | SMC (sero-mucous glands) grade [2, 6]: −1 (6×) and 0 (14×) | 6-week histopathology scores ([2]; result in words, driven by reduced submucosal fibrosis and angiogenesis): significantly lower | Storage modulus G′ [3]: about 350 Pa | Inflammatory cell infiltration due to the gel in the wound [4]: absence if inflammatory cell infiltration
